In patent US20210059933A1, “HYDROGELS AS ORAL DELIVERY DOSAGE FORMS, METHODS OF MAKING AND USING SAME” (priority 2019, published 2021):
Values belong to the compound of their own block, whether it stands above or below them.

Columns and labels:
[1] = lipophilic partition coefficient of the drug; cited from earlier work
[2] = drug by itself; cited from earlier work
[3] = Release of drug from drug-loaded disintegrating hydrogel into simulated gastric fluid, supersaturation by UV-vis; conditions: 2 hours, 150 rpm, hydrogel from 25% by volume acetal cross-linker, drug loading as in % wt drug
Experimental: A disintegrating hydrogel is first formed from 0.125 mL of a solution of dimethylformamide containing 25% by volume of the cross-linker triethylene glycol di[ethyl-1-methacryloyloxy poly(ethylene glycol) acetal] and 5% by volume of the photoinitiator 2-hydroxy-2-methylpropiophenone then purified by washing several times in ethanol. This disintegrating hydrogel is then transferred to the same solvent used to maximize the dissolution of the active pharmaceutical ingredient of interest. The hydrogel is transferred to a silicone mold and heated for a minimum amount of time to evaporate a majority of the solvent soaked into the hydrogel pores. Then about 0.1 mL of a solution of the active pharmaceutical ingredient solubilized in the preferred solvent is added to the silicone mold containing the hydrogel, which is allowed to swell in order to absorb the solution. Once absorbed, the solvent is removed in a vacuum oven in order to induce the crystallization of the active pharmaceutical ingredient in the hydrogel pores. The mass of the active pharmaceutical ingredient contained in the disintegrating hydrogel is determined experimentally then normalized by the combined mass of both components to quantify the weight fraction of the active pharmaceutical ingredient.
The hydrogel is added to the vial and allowed to dissolve over the course of 2 hours. The presence of the active pharmaceutical ingredient in the aqueous solution is monitored by ultraviolet-visible spectrometry to quantify the concentration relative to the inherent solubility of the active pharmaceutical ingredient without a hydrogel present. The ratio of the solubility achieved upon release from disintegrating hydrogels to the solubility achieved upon dissolution without disintegrating hydrogels is the supersaturation.

[4] = Dissolution of drug encapsulated in acid-hydrolysable hydrogels in 0.1M HCl solution (pH=1); assay type: physicochemical; conditions: immediate release acid-hydrolysable hydrogels
Text: FIG. 3 is a dissolution profile of vitamin E (tocopherol) encapsulated at various drug loading levels in hydrogels composed of 25% by volume acetal cross-linker into a 0.1M HCl solution (pH=1).
The hydrogel labelled acetal hydrogel [w/ 10% surfactant] {w/ 15% surfactant} were synthesized by polymerizing a pre-cursor solution containing 25% [20%] {20%} by volume of the triethylene glycol di[ethyl-1-methacryloyloxy poly(ethylene glycol) acetal] cross-linker, 0% [3.9%] {3.9%} by volume of methyl methacrylate, 0% [6.1%] {6.1%} by volume of dimethylaminoethyl methacrylate, and 0% [10%] {15%} by volume of a hydrolytically hydrolysable surfactant monomer: acetaldehyde-(stearyl PEG-20 ether)-(acrylate ethylene glycol) acetal. Each drug substance is loaded into the pores of the hydrogel by first dissolving in ethanol and adding the organic solution into a silicone mold containing the pre-formed and washed hydrogel followed by evaporation of the solvent. Sufficient drug substance solution is added to the mold to reach a range of drug loading values.

Compound: COC1=C(OC)C(=O)C(C/C=C(\C)CC/C=C(\C)CC/C=C(\C)CC/C=C(\C)CC/C=C(\C)CC/C=C(\C)CC/C=C(\C)CC/C=C(\C)CC/C=C(\C)CCC=C(C)C)=C(C)C1=O [Coenzyme Q10]
log P [1]: 9.9 | C_s (aqueous solubility) [2]: 0.2 µg/mL | X_sat (supersaturation: ratio of solubility achieved upon release from disintegrating hydrogels to solubility without hydrogels) [3]: 69.1

supersaturation level of final concentration [4]: ≤ 11 times the intrinsic solubility
Compound: CC(=O)[C@H]1CC[C@H]2[C@@H]3CCC4=CC(=O)CC[C@]4(C)[C@H]3CC[C@]12C [progesterone]
C_s (aqueous solubility) [2]: 5.5 µg/mL

supersaturation level of final concentration [4]: up to 74 times the intrinsic solubility
Compound: tocopherol [tocopherol (vitamin E)]

Compound: C=C(C)[C@@H]1CCC(C)=C[C@H]1c1c(O)cc(CCCCC)cc1O [cannabidiol (CBD), cannabidiol]
X_sat (supersaturation: ratio of solubility achieved upon release from disintegrating hydrogels to solubility without hydrogels) [3]: 22.3

Compound: CCCSc1ccc2nc(NC(=O)OC)[nH]c2c1 [albendazole]
log P [1]: 2.7 | C_s (aqueous solubility) [2]: 22.8 µg/mL | X_sat (supersaturation: ratio of solubility achieved upon release from disintegrating hydrogels to solubility without hydrogels) [3]: 2.01

Compound: CC(C)/N=c1\cc2n(-c3ccc(Cl)cc3)c3ccccc3nc-2cc1Nc1ccc(Cl)cc1 [clofazimine]
C_s (aqueous solubility) [2]: 0.23 µg/mL

Compound: C[C@H]1C[C@@H]2[C@H]([C@@H](O)C[C@@]3(C)[C@H]2CC[C@]3(O)C(=O)CO)[C@@]2(C)C=CC(=O)C=C12 [methylprednisolone]
log P [1]: 1.53

Compound: Cc1ccc(Nc2nccc(N(C)c3ccc4c(C)n(C)nc4c3)n2)cc1S(N)(=O)=O [pazopanib]
log P [1]: 3.59 | C_s (aqueous solubility) [2]: 43.3 µg/mL

Compound: CCCCN(CCCC)CC(O)c1cc(Cl)cc2c1-c1ccc(Cl)cc1/C2=C/c1ccc(Cl)cc1 (centres unmarked) [lumefantrine]
log P [1]: 8.34 | C_s (aqueous solubility) [2]: 0.04 µg/mL

Compound: Cc1cn(-c2cc(NC(=O)c3ccc(C)c(Nc4nccc(-c5cccnc5)n4)c3)cc(C(F)(F)F)c2)cn1 [nilotinib]
log P [1]: 4.51 | C_s (aqueous solubility) [2]: 2.01 µg/mL

Compound: C[C@@H]1[C@H](O)[C@@H](C)/C=C/C=C/C=C/C=C/C=C/C=C/C=C/[C@H](O[C@@H]2O[C@H](C)[C@@H](O)[C@H](N)[C@@H]2O)C[C@@H]2O[C@](O)(C[C@@H](O)C[C@@H](O)[C@H](O)CC[C@@H](O)C[C@@H](O)CC(=O)O[C@H]1C)C[C@H](O)[C@H]2C(=O)O [amphotericin b]
log P [1]: 0.8 | C_s (aqueous solubility) [2]: 82 µg/mL | X_sat (supersaturation: ratio of solubility achieved upon release from disintegrating hydrogels to solubility without hydrogels) [3]: 13.8

Compound: CC/C=C\C/C=C\C/C=C\C/C=C\C/C=C\CCCC(=O)O [eicosapentaenoic acid]
log P [1]: 6.1 | C_s (aqueous solubility) [2]: 0.29 µg/mL
